Patent US11591297B2, “Compound having PD-L1 expression-suppressing action” (TOHOKU UNIVERSITY, priority 2019, dated 2023)

Test system: human PD-L1 promoter
Assay: Inhibitory effect of luciferase expression under control of PD-L1 promoter (A549/PD-L1luc luciferase assay, corrected by total protein)
Format: cell-based
Conditions: Homo sapiens; A549/PD-L1luc cells, 48±4 hours, RLU corrected by total protein amount; read-out: IC50 (50% inhibition value of luciferase expression)
Source text: A reporter vector, pPD-L1luc obtained by the insertion of a human PD-L1 promoter sequence (−2097 to 51) into the multiple cloning site of pGL-3 vector basic (Promega) expresses luciferase under the control of PD-L1 promoter when transfected into animal cells. The pPD-L1luc was transfected into a human non-small cell lung cancer-derived cell line A549 together with pPUR (Clontech) that expresses a puromycin resistance gene (puromycin-N-acetyl-transferase gene), and then cells expressing luciferase which could grow in a puromycin-supplemented medium were selected. The selected cells were named “A549/PD-L1luc cells” and used for luciferase assay as described below.
A test compound was added into a culture liquid containing A549/PD-L1luc cells to observe the influence of the test compound on the amount of luciferase expressed in the cells. Here, it can be considered that when the test compound has a cell cytotoxicity or cell growth inhibitory effect, the total expression level of luciferase is recued due to a reduction in the number of living cells that depends on the concentration of the test compound, and thus the inhibitory effect of luciferase expression under the control of PD-L1 promoter of the test compound cannot be properly evaluated.
A549/PD-L1luc cells were suspended in DMEM containing 10% fetal calf serum (FCS) and 1% penicillin/streptomycin (P/S) (hereinafter, referred to as “DMEM medium”) at 3×10^4 cells/mL to obtain a cell suspension, and the cell suspension was dispensed into each well of a 96-well plate in an amount of 100 μL. In order to perform the assay in triplicate, 3 wells were prepared for control group, and 3 wells were prepared for test compound-treated groups at each concentration. After the dispensation, the 96-well plate was incubated in a CO2 incubator (at 37° C. and 5% CO2) for 24±4 hours.
Each compound of Examples 1 to 6 and Comparative Example 1 was dissolved in dimethylsulfoxide (DMSO) to obtain 50 mmol/L of a compound solution, and the compound solution was stored at −80° C. The compound solution was diluted with DMSO in 2-fold dilution series (usually, in the range of 0.04 mmol/L to 10 mmol/L) to prepare test compound solutions whose concentration varied by two fold for luciferase assay.
Each solution of only DMSO (control) and the diluted test compound (sample) was dispensed into each well containing the cell suspension in an amount of 0.5 μL (200-fold dilution). The solution in each well was mixed with a vortex mixer, and then the 96-well plate was incubated in a CO2 incubator (at 37° C. and 5% CO2) for 48±4 hours. Luciferase Assay Substrate (hereinafter, referred to as “LAS”) supplied in Luciferase Assay Systems (Promega: Cat #E1500) was dissolved in Luciferase Assay Buffer (LAB) to prepare a luciferase reagent. 5× Cell Culture Lysis Reagent (hereinafter, referred to as “CCLR”) was diluted by 5 times with water to prepare 1×CCLR.
After the incubation for 48±4 hours, the medium in each well was completely removed, and 1×CCLR was dispensed into each well in an amount of 50 μL. The plate was allowed to stand at room temperature for 30 minutes, and then 1×CCLR in each well was used as an assay sample for luciferase and total protein amount. The luciferase reagent (100 μL) was placed in a tube for chemiluminescence measurement assay, and the assay sample (20 μL) was added into the tube and mixed with the luciferase reagent to measure chemiluminescence (Relative Luminescence Intensity: RLU) using GloMax 20/20 (Promega).
The above-mentioned assay sample (10 μL) was diluted by 10 times with water (90 μL). Each calibration curve sample was prepared by diluting the BSA solution with water as described in Table 1.
BCA reagent A and BCA reagent B (50:1) supplied in a kit for protein assay were mixed to prepare Working Reagent. Each of the calibration curve samples (Vials I to VI) and the 10-fold diluted assay samples was dispensed into each well of a 96-well plate in an amount of 25 μL, respectively. […]

IC50 [nM] | Compound
1300 | O=C(Nc1ccc(Oc2ccc(C(F)(F)F)cc2)cc1)C1CCCN(C(=O)c2ccc([N+](=O)[O-])cc2)C1 (stereo not shown) [Example 2, 1-(4-Nitrobenzoyl)-N-(4-(4-(trifluoromethyl)phenoxy)phenyl) piperidine-3-carboxamide]
610 | COc1cc(C(=O)N2CCCC(C(=O)Nc3ccc(Oc4ccc(C(F)(F)F)cc4)cc3)C2)ccc1O (stereo not shown) [Example 3, 1-(4-Hydroxy-3-methoxybenzoyl)-N-(4-(4-(trifluoromethyl)phenoxy)phenyl)piperidine-3-carboxamide]
620 | O=C(Nc1ccc(Oc2ccc(S(F)(F)(F)(F)F)cc2)cc1)C1CCCN(C(=O)c2ccc([N+](=O)[O-])cc2)C1 (stereo not shown) [Example 5, 1-(4-Nitrobenzoyl)-N-(4-(4-(pentafluorosulfanyl)phenoxy)phenyl)piperidine-3-carboxamide]
610 | COc1cc(C(=O)N2CCCC(C(=O)Nc3ccc(Oc4ccc(S(F)(F)(F)(F)F)cc4)cc3)C2)ccc1O (stereo not shown) [Example 6, 1-(4-Hydroxy-3-methoxybenzoyl)-N-(4-(4-(pentafluorosulfanyl)phenoxy)phenyl)piperidine-3-carboxamide]
